Data set [1] addresses α2-ADR. On the set-up: method as in PMID 22795332. The following applies: cited from earlier work.
The target in data set [2] is T1, hTAAR1 (Homo sapiens, UniProt Q96RJ0).
T1 construct: Plasmid containing the cDNA for hTAAR1 was a generous gift from Hoffman-La Roche; expressed in transfected cells; host or cells: HEK293T (ATCC CRL-11268), transient transfection with Lipofectamine 2000
T1 sequence (Q96RJ0 1-339): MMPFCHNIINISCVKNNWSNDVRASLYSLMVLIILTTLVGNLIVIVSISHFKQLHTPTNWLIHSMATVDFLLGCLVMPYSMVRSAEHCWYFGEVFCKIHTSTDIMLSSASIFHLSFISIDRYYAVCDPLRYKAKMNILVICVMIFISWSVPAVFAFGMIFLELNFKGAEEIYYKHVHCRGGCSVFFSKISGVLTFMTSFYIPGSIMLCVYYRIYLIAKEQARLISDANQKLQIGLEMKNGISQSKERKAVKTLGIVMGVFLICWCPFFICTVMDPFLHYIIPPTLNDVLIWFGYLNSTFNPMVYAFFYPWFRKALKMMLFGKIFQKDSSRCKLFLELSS
To be noted: S18616; cited from earlier work.

Data set [3] deals with α2-ADR. To be noted: cited from earlier work.
Data set [4] concerns the target T1, hTAAR1. Description: BRET-based cAMP assay in HEK293 cells transfected with hTAAR1 and cAMP biosensor. It is filed as cell-based. To be noted: for EC50: HEK293, dose-response 1 nM to 10 μM, IBMX 200 µM. On the procedure: hTAAR1 is coupled to stimulatory G proteins and thus its activation induces an increase in the cAMP production. We measured the potential activity of guanfacine and guanabenz by using a BRET-based assay in which HEK293 cells were transfected with hTAAR1, or the empty vector as control, and the cAMP BRET biosensor. […] A dose-response experiment was performed using concentrations ranging from 1 nM to 10 μM to calculate the corresponding EC50 and the Emax values.
Human embryonic kidney 293 cells (HEK293T; ATCC CRL-11268) were maintained in Dulbecco’s Modified Eagle’s medium (DMEM; Gibco-Thermo Fisher Scientific, New York, NY, USA) supplemented with 10% (v/v) of FBS, 2 mM l-glutamine, and 0.05 mg/mL of gentamicin (both from Gibco) at 37 °C in a humidified atmosphere at 95% air and 5% CO2. Transient transfections were performed 24 h after cell seeding using the Lipofectamine reagent 2000 protocol (Invitrogen-Thermo Fisher Scientific, Carlsbad, USA). Then, 5 µg of hTAAR1 and 4 µg of cAMP biosensor protein (EPAC) encoding plasmids (the latter based on pcDNA3 core vector [59]) for each milliliter of transfection mix were used. For the BRET experiments, the cells were plated 6 h after transfection in poly-D-lysine coated 96-well white opaque microplates (Corning, New York, NY, USA) at a density of 7 × 10^4 cells per well in phenol red free Minimum Essential Medium (MEM; Gibco-Thermo Fisher Scientific, New York, NY, USA) containing 2% of FBS, 10 mM HEPES buffering agent, and 2 mM L-glutamine (all from Gibco-Thermo Fisher Scientific, New York, NY, USA). The cells were then cultured for an additional 24 h.
The BRET experiment was conducted as already described. Briefly, for time course experiments, the plate was read immediately after the addition of the agonist and for approximately 20 min. All the experiments were conducted in the presence of the phosphodiesterase inhibitor 3-isobutyl-1-methylxanthine (IBMX; Sigma-Aldrich, St. Louis, MO, USA) at the final concentration of 200 µM. Readings were collected using a Tecan Infinite instrument that allows the sequential integration of the signals detected in the 465 to 505 nm and 515 to 555 nm windows using filters with the appropriate band pass and by using iControl software. The acceptor/donor ratio was then calculated.
All the compounds were dissolved in dimethyl sulfoxide (DMSO; Sigma-Aldrich, St. Louis, MO, USA) and tested at the final concentration of 10 μM. Beta-phenylethylamine (Sigma-Aldrich, St. Louis, MO, USA) at the final concentration of 10 µM was applied as a positive control. To confirm specificity of positive responses, parallel screening on cells not transfected with the TAAR1-encoding vector was carried out. For compounds considered active, separate dose-response experiments were performed in order to calculate the EC50 values. Curves were fitted using a non-linear regression and one site specific binding with GraphPad Prism 6 (GraphPad Software). Data are representative of 4–5 independent experiments and are expressed as means, SD < 10%.
In general terms: In BRET a luciferase serves as donor, and the signal depends on an acceptor being close.

The subject of data set [5] is mTAAR1. On the set-up: method as in PMID 19725810. To be noted: cited from earlier work.
For data set [6], the system named is mTAAR1. Further details: method as in doi:10.1039/C5MD00400D. The following applies: BRET cAMP reporter; cited from earlier work.
In the next data set the target is chimeric receptor cTAAR1. Further details: method as in PMID 19725810. The following applies: cited from earlier work.
The test system of a further data set is DAT-KO rats. Description: Locomotor activity of DAT-KO rats (Actometer). It is filed as in vivo, rat. To be noted: 0.1 and 0.3 mg/kg i/p, 60 min, vs vehicle p < 0.001 and p = 0.02 (Bonferroni). On the procedure: To evaluate the in vivo pharmacological effect of guanfacine, we used a rodent model of hyperdopaminergia, the dopamine transporter knockout (DAT-KO) rats, that also mimics some phenotypic aspect of ADHD and has certain predictive validity for the search of novel pharmacological agents to control hyperactivity and cognitive processes in patients with this disease. […] Thus, the effect of guanfacine on hyperactivity of DAT-KO rats was evaluated.
Results are presented on Figure 15. […] We used the mixed ANOVA (the within-subject factors ‘5-min bin’ (1–12) and ‘dose’ (0.0; 0.1; 0.3 mg/kg), the between-subject factor ‘mutation’ (‘WT’; ‘KO’); the random factor ‘rat #’) on rank-transformed data to analyze results. […] Locomotor activity of the rats decreased from the 1st to the 12th bin (the effect of factor ‘5-min bin’: F(11,51) = 2.51, p = 0.01). The lack of DAT was associated with an increased level of locomotor activity (the effect of factor ‘mutation’: F(1,11) = 222.94, p < 0.001). […] We used Bonferroni’s test for post hoc comparisons. […]
The study was performed in the apparatus ‘Actometer’ described in detail before. […] Following the injection, the locomotor activity of the animals was recorded for an additional 60 min divided in 12 intervals of 5-min each. […]

Details of data set [7]: method as in PMID 12351753. The following applies: animal studies, cited from earlier work.

We go through 8 compounds from paper PMC10674299, “Discovery of Guanfacine as a Novel TAAR1 Agonist: A Combination Strategy through Molecular Modeling Studies and Biological Assays” (Pharmaceuticals, 2023).

Read-outs that look alike come from different tables or passages of the source.

As for `c1ccc(CC2=NCCN2)cc1` [5a], on α2-ADR [1], the Ki was 98.4 nM.

Consider `c1ccc(Cc2ncc[nH]2)cc1` [6a], for which the Ki at α2-ADR [1] is 1880 nM.

In the case of `NC1=NC2(CCc3cccc(Cl)c3C2)CO1` (stereo not drawn) [S18616], the concentration giving a half-maximal response (EC50) at hTAAR1 [2] was 15 nM; in the data set on α2-ADR [3] (S18616) it was 0.7 nM.

As to `CC(C)N(Cc1c[nH]cn1)c1ccc(Cl)cc1` [compound 24], the Ki on α2-ADR [1] is 840 nM.

Consider `CCN(Cc1ncc[nH]1)c1ccccc1` [compound 51], for which, on α2-ADR [1], the inhibitory constant (Ki) is 254 to 497 nM.

`N=C(N)N/N=C/c1c(Cl)cccc1Cl` [guanabenz]: the maximal response (Emax) at hTAAR1 [4] (HEK293, read-out: hTAAR1 Emax) is greater than 85%. Moreover, the “type of agonism at hTAAR1” value at hTAAR1 [4] (cAMP BRET, HEK293) is on record as “full agonists”. Further, the EC50 on hTAAR1 [4] (cAMP BRET) is 10 nM; in the data set with α2-ADR [3] (guanabenz) it was roughly 16.3 nM; in the data set with mTAAR1 [5], 7 nM; with mTAAR1 [6], 90 nM; at chimeric receptor cTAAR1 (chimeric human/mouse receptor), 25 nM. Moreover, the figures for the “type of agonism at mTAAR1” value with mTAAR1 [5] and with mTAAR1 [6] were “partial agonist” and “full agonist”, respectively. In addition, the “type of agonism at cTAAR1” value with chimeric receptor cTAAR1 is “partial agonist”.

Turning to `N=C(N)NC(=O)Cc1c(Cl)cccc1Cl` [guanfacine], at hTAAR1 [4] (cAMP BRET, HEK293), the “type of agonism at hTAAR1” value is “full agonists”. Also, the concentration for a half-maximal effect (EC50) on hTAAR1 [4] (cAMP BRET) was 20 nM; in the data set with α2-ADR [3] (guanfacine) it was roughly 25.1 nM. In addition, the Emax on hTAAR1 [4] (cAMP BRET, HEK293, read-out: hTAAR1 Emax) is greater than 85%. Besides, the “effect on locomotor activity” value with DAT-KO rats is reported as “decreased locomotor activity”. Besides, the adverse effects result in data set [7] (higher doses (10 mg/Kg)) is reported as “provoked more relevant adverse effects”. For the same compound, in data set [7] (low doses (0.5–1 mg/Kg)), the “effect on working memory” value was “improved working memory without reducing blood pressure or causing significant sedation”.

As for `NCCc1ccccc1` [β-PEA, β-phenylethylamine], the EC50 on hTAAR1 [4] (cAMP BRET) was found to be 202 nM.

What is called Ki is the equilibrium dissociation constant of an inhibitor or competing ligand from its target. As a reminder, the EC50 is the concentration that produces a half-maximal response. For orientation: Emax means the greatest response seen or fitted, relative to the assay's reference.
